Assay results as given in patent US3985798A, “11α-HOMO-PROSTANOIC ACIDS AND ESTERS” (American Cyanamid Company, priority 1975, dated 1976).

Test system: basal gastric acid secretion
Assay: Inhibition of Total Acid Output in the Acute Gastric Fistula Rat (inhibition of basal gastric acid secretion)
Format: in vivo, Female Sprague-Dawley rats
Details: 10 mg./kg. intraduodenal, vs concurrent vehicle control; for Total Acid Output % Inhibition, 60"(A): sample A, 60 minutes; for Total Acid Output % Inhibition, 120"(B): sample B, 120 minutes
Text: The natural prostaglandins have a broad spectrum of biological properties. Because of these diverse effects their potential therapeutic use is limited. […] On the other hand, they do inhibit gastic acid secretion and accordingly are potentially useful for the treatment of peptic ulcers, gastric hyperacidity and gastric erosion. Inhibition of basal gastric acid secretion can be determined by the following procedure. Female Sprague-Dawley rats weighing 140-160 grams are fasted in individual cages for 18-24 hours. The rats are then lightly anesthetized with ether and their front teeth extracted to avoid destruction of the plastic cannula. A midline incision is then made and the stomach and duodenum exposed. A flanged polyvinyl tube is inserted into the fundic portion of the stomach and secured with a purse string suture line using 4-0 Mersilene. The rat is then dosed by injection of the compound into the duodenum (1.0 ml. per 100 gram body weight). After dosing, the abdominal wall and skin are closed using metal wound clips. The rat is replaced in a cage containing a longitudinal slit to allow the polyvinyl tube to hang freely. An 8 ml. plastic collecting tube is attached to the flanged cannula and hangs freely below the cage. The first 30 minute sample is discarded designating this time as zero. The collecting tube is attached again and samples removed at the end of 60 and 120 minutes. These samples are referred to as A and B in the table. The hourly samples are then transferred to a 15 ml. centrifuge and centrifuged for 5-10 minutes. Total and sediment volume are then recorded with the supernatant volume being used as volume of secretion. A 1 ml. or less aliquot is then removed and placed in a 50 ml. beaker containing 10 ml. of distilled water. This sample is then titrated using 0.01N NaOH to pH 7.0 using a Beckman zeromatic pH meter, Volume, titratable acidity (meq/L), and total acid output (ueg/hour) are recorded. Percent inhibition is determined by comparison with the appropriate control. Groups of three rats were used for preliminary testing, and groups of six rats were used for dose-response evaluations. All compounds are administered in a vehicle consisting of 0.5% methocel, 0.4% Tween 80, and saline at a constant volume of 1 ml./100 gram rat. Samples are dispersed by sonification. Percent inhibition is calculated on basis of concurrent vehicle control.
In Table A which follows is given the effect on total acid output after 120 minutes of a 10 mg./kg. intraduodenal dose of representative compounds of this invention.

## CCCCC[C@H](O)/C=C/[C@H]1CC=CC(=O)[C@@H]1CCCCCCC(=O)O (relative stereo) [dl-11a-homoprostaglandin A1, 9-oxo-15-hydroxy-11a-homo-10,13-trans-prostadienoic acid]
  Total Acid Output % Inhibition, 60"(A): 35%
  Total Acid Output % Inhibition, 120"(B): 33%

## CCCCC[C@H](O)/C=C/[C@H]1C[C@H](O)CC(=O)[C@@H]1CCCCCCC(=O)O (relative stereo) [dl-11a-homoprostaglandin E1, 9-oxo-11α,15-dihydroxy-11a-homo-13-trans-prostenoic acid]
  Total Acid Output % Inhibition, 60"(A): 69%
  Total Acid Output % Inhibition, 120"(B): 74%

## CCCCC[C@@H](O)/C=C/[C@H]1CC=CC(=O)[C@@H]1CCCCCCC(=O)O (relative stereo) [9-oxo-15-epi-hydroxy-11a-homo-10,13-trans-prostadienoic acid]
  Total Acid Output % Inhibition, 60"(A): 43%
  Total Acid Output % Inhibition, 120"(B): 47%
